Measurements: PubChem BioAssay AID1259334 (Broad Institute, 2017)
Where “and” joins values, the source holds several entries; their conditions need not be identical. Equal entries are not always repeated. Calls of active or inactive are those of the source. Rule as the data show it: active = AC50 below about 11 µM.

Test system: B cell line, TNFa signaling counterscreen reporter
Test: TNFa signaling inhibitors in B cell line, dose response, counter-screen (AID 1259334);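 also: cells stimulated with TNFa after compound preincubation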

## COc1ccc(CC2C(=O)NC(C)C(=O)N(C)C3C(=O)N(C)C(Cc4ccc(O)c(c4)Oc4ccc(cc4)C3O)C(=O)NC(C)C(=O)NC(C)C(=O)N2C)cc1 (centres undefined)
  AC50: 0.0133 µM

## N#C[C@@H]1[C@H](c2ccc(C#Cc3ccccc3F)cc2)[C@@H](CO)N1C(=O)c1cccnc1
  AC50: 6.76 µM

## COc1cc(C(=O)CCN2CCC(c3ccccc3)C2)cc(OC)c1OC (centres undefined)
  AC50: 4.66 µM

## COc1ccc(CN(CCC(c2ccc(F)cc2)C2CCOC(C)(C)C2)C(=O)c2ccco2)cc1 (centres undefined)
  AC50: 11.3 µM

## COc1ccc(C#Cc2ccc([C@@H]3[C@H](CO)N4CCCCN(C(=O)Nc5cccc(F)c5)C[C@@H]34)cc2)cc1
  AC50: 4.57 µM

## C[C@H]1CN([C@@H](C)CO)C(=O)c2c(c3ccccc3n2C)-c2ccccc2CO[C@H]1CN(C)C(=O)Nc1cccc(C(F)(F)F)c1
  AC50: > 20 µM (inactive)

## CC(=O)OCC(=O)C1(O)CCC2C3CCC4=CC(=O)CCC4(C)C3(Cl)C(O)CC21C (centres undefined)
  AC50: > 20 µM (inactive)

## Cc1cc(C)nc(Sc2ncnc(N)c2[N+](=O)[O-])n1
  AC50: 2.53 µM

## COc1ccc2c3c(n(C)c2c1)[C@H](CO)N(C(=O)Nc1ccc(F)cc1)CC31CCN(C(=O)c2ccc3c(c2)OCO3)CC1
  AC50: > 20 µM (inactive)

## Cc1noc(C)c1S(=O)(=O)N(C)C[C@H]1OCc2ccccc2-c2c(n(C)c3ccccc23)C(=O)N([C@@H](C)CO)C[C@H]1C
  AC50: > 20 µM (inactive)

## N#C[C@@H]1[C@H](c2ccc(C#CC3CCCCC3)cc2)[C@@H](CO)N1S(=O)(=O)c1ccccc1
  AC50: 7.1 µM

## COc1ccc(S(=O)(=O)N(C)C[C@H]2Oc3ccc(NC(=O)Nc4ccc(C(F)(F)F)cc4)cc3C(=O)N([C@@H](C)CO)C[C@@H]2C)cc1
  AC50: > 20 µM (inactive)

## COc1ccc(S(=O)(=O)Nc2ccc3c(c2)C(=O)N([C@@H](C)CO)C[C@H](C)[C@@H](CN(C)Cc2ccc(C(F)(F)F)cc2)OCCCC[C@@H](C)O3)cc1
  AC50: 7.51 µM

## O=C1NC2c3c(Cl)sc(Cl)c3C(=O)C2O1 (centres undefined)
  AC50: 4.18 µM

## Cc1noc(C)c1S(=O)(=O)N(C)C[C@@H]1OCc2ccccc2-c2c(n(C)c3ccccc23)C(=O)N([C@@H](C)CO)C[C@@H]1C
  AC50: 10.2 µM

## CCC(=O)O[C@]1(C(=O)CCl)[C@@H](C)C[C@H]2[C@@H]3CCC4=CC(=O)C=C[C@]4(C)[C@@]3(F)[C@@H](O)C[C@@]21C
  AC50: > 20 µM (inactive)

## CN(C)c1ccc(C(=C2C=CC(=[N+](C)C)C=C2)c2ccc(N(C)C)cc2)cc1
  AC50: 0.099 µM

## C[C@H](CO)N1C[C@H](C)[C@H](CN(C)CC2CCCCC2)OCCCC[C@H](C)Oc2ccc(NC(=O)Nc3ccc(C(F)(F)F)cc3)cc2C1=O
  AC50: 7.26 µM

## CC[C@@]1(O)C(=O)OCc2c1cc1n(c2=O)Cc2cc3cc(O)ccc3nc2-1
  AC50: 1.13 µM

## c1ccc2nc(-c3nc4ccccc4o3)ccc2c1
  AC50: 6.02 µM

## CC1CCCC=CC2CC(OC(=O)CN(C)C)CC2C(O)C=CC(=O)O1 (centres undefined)
  AC50: 0.0509 µM

## O=C1c2c(O)ccc(O)c2C(=O)c2c(NCCNCCO)ccc(NCCNCCO)c21
  AC50: 1.18 µM

## CC1=CC2OC3CC4OC(=O)C=CC=CC(C(C)O)OCC(O)C5(C)OC5C(=O)OCC2(CC1O)C4(C)C31CO1 (centres undefined)
  AC50: 0.0273 µM

## CC1=CC(C)(C)N=C(Nc2nc(C)c3cc(C)cc(C)c3n2)N1
  AC50: 2.49 µM

## CC(=O)NC12CC3CC(C1)CC(C(=O)OCC(=O)c1ccc4c(c1)OCCO4)(C3)C2
  AC50: 6.44 µM

## COc1ccc(C(=O)O/N=C2\C(=O)N(C)c3ccccc32)cc1
  AC50: 7.39 µM

## N#C[C@H]1N[C@H](CO)[C@H]1c1ccc(C#CC2CCCC2)cc1
  AC50: 8.01 µM

## C=C1C(=O)OC2CC1C(O)CC(C)=CCCC(C)=CC(O)CC2C (centres undefined)
  AC50: 2.27 µM

## O=C(C1CC1)N1C[C@@H]2N[C@H](C1)C2c1ccc(-c2cccc(F)c2)cc1 (some centres undefined)
  AC50: 5.96 µM

## Cc1cc(C(=O)COC(=O)c2ccco2)c(C)n1Cc1ccco1
  AC50: 0.111 µM

## Cn1cnc([N+](=O)[O-])c1S(=O)(=O)Oc1cccc2ccccc12
  AC50: 0.397 µM

## CC1=CC2OC3CC4OC(=O)C=CC=CC(=O)OCCC(C)C(O)C(=O)OCC2(CC1O)C4(C)C31CO1 (centres undefined)
  AC50: 0.00511 µM

## O=S(=O)(CCSc1ccccn1)c1nc2ccccc2s1
  AC50: 5.13 µM

## C=C1C(=O)O[C@H]2[C@H]1CC/C(C)=C/CC[C@@]1(C)O[C@@H]21
  AC50: 3.54 µM

## CC1CC(C)C(=O)C(C(CC2CC(=O)NC(=O)C2)OC(=O)CC(=O)c2ccccc2)C1 (centres undefined)
  AC50: 2.17 µM

## CC(C)[C@H](N)C(=O)N[C@H]1CCC2C3CC=C4C[C@@H](O)CC[C@]4(C)C3CC[C@@]21C (some centres undefined)
  AC50: 1.96 µM

## O=S(c1ccccc1O)S(=O)c1ccccc1O (centres undefined)
  AC50: > 20 µM (inactive)

## C[C@@H]1CN([C@@H](C)CO)C(=O)c2c(c3ccccc3n2C)-c2ccccc2CO[C@@H]1CN(C)C(=O)c1cc(Cl)cc(Cl)c1
  AC50: > 20 µM (inactive)

## COC(=O)c1ccc2nc(NC(=O)C(C)(C)C)sc2c1
  AC50: 2.32 µM

## Cc1cc(C)cc(N2C(=O)CC(Sc3nnnn3-c3ccccc3)C2=O)c1 (centres undefined)
  AC50: 0.728 µM

## O=C1c2ccccc2C(=O)C1c1ccc2ccccc2n1
  AC50: 10.6 µM

## O=C1NC2C(O)C(O)C(O)C(O)C2c2cc3c(c(O)c21)OCO3 (centres undefined)
  AC50: 0.125 µM

## COc1ccc(C#Cc2ccc([C@H]3[C@@H](CO)N4CCCCN(S(=O)(=O)c5cn(C)cn5)C[C@H]34)cc2)cc1
  AC50: 8.82 µM

## O=C(c1ccc(Nc2nccc(-c3cc4ccccc4s3)n2)cc1)N1CCC(N2CCCC2)CC1
  AC50: 0.15 µM and 0.715 µM

## O=C(Nc1nc2ccccc2s1)c1ccc(OCC2CCCO2)cc1 (centres undefined)
  AC50: 10.2 µM

## CC1CC(C)(O)CC(C(O)CC2CC(=O)NC(=O)C2)C1=O (centres undefined)
  AC50: 0.0899 µM

## C[C@@H]1CN([C@@H](C)CO)C(=O)c2ccccc2-c2ccccc2CO[C@H]1CN(C)Cc1ccccc1C(F)(F)F
  AC50: 7.43 µM

## O=C(C[C@@H]1CC[C@@H]2[C@H](COC[C@H](O)CN2Cc2cc(F)ccc2F)O1)NCc1ccc(Oc2ccccc2)cc1
  AC50: 5.02 µM

## NC(=NCCCCCCN=C(N)/N=C(\N)Nc1ccc(Cl)cc1)/N=C(\N)Nc1ccc(Cl)cc1
  AC50: 10.5 µM

## O=C(COc1cccnc1[N+](=O)[O-])c1ccc(Cl)s1
  AC50: 4.71 µM

## C[C@@H]1CN([C@@H](C)CO)C(=O)c2c(c3ccccc3n2C)-c2ccccc2CO[C@H]1CN(C)C(=O)Nc1cccc(C(F)(F)F)c1
  AC50: 10.9 µM

## NC(=O)c1c(Br)n(C2OC(CO)C(O)C2O)c2ncnc(N)c12 (centres undefined)
  AC50: 1.5 µM

## COC(=O)C1=C(C)NC(C)=C(C(=O)OCCCN2CCC(c3ccccc3)(c3ccccc3)CC2)[C@H]1c1cccc([N+](=O)[O-])c1
  AC50: 4.12 µM

## N#C[C@H]1[C@H](c2ccc(C#Cc3ccccc3F)cc2)[C@H](CO)N1C(=O)C1CC1
  AC50: 11.3 µM

## Cc1cccc(-c2ccc(C3[C@@H]4CN(C(=O)Nc5ccc(C(F)(F)F)cc5)C[C@H]3N4)cc2)c1 (some centres undefined)
  AC50: > 20 µM (inactive)

## Cc1ccsc1C(=O)OCC(=O)c1cc(C)n(CC2CCCO2)c1C (centres undefined)
  AC50: 0.0426 µM

## CC1OC(OC2CC(O)C3(CO)C4C(O)CC5(C)C(C6=CC(=O)OC6)CCC5(O)C4CCC3(O)C2)C(O)C(O)C1O (centres undefined)
  AC50: 0.109 µM

## C=C1CC(Cn2cc(Br)c(=O)[nH]c2=O)(c2ccc(-c3ccccc3)cc2)OC1=O (centres undefined)
  AC50: 1.07 µM

## O=C1CCCCC1Sc1nnc(-c2ccc3c(c2)OCO3)o1 (centres undefined)
  AC50: 0.871 µM

## COC(=O)C1=C(C(=O)OC)C(C(=O)OC)C(C(=O)OC)C(C(=O)OC)(C(=O)OC)C(C(=O)OC)=C1C(=O)OC (centres undefined)
  AC50: 4.62 µM

## COCC(C)n1c(C)cc(C(=O)COC(=O)c2cccn2C)c1C (centres undefined)
  AC50: 0.76 µM

## COc1ccc(/C=C/C(=O)Nc2ccccc2C(=O)O)cc1OC
  AC50: 8.81 µM

## O=C(C1CCOCC1)N1CC(=O)N2[C@H](C1)[C@H](c1ccc(C#CCc3ccccc3)cc1)[C@@H]2CO
  AC50: 1.6 µM

## Cc1noc(C)c1S(=O)(=O)Nc1ccc2c(c1)CC(=O)N([C@@H](C)CO)C[C@@H](C)[C@@H](CN(C)Cc1ccc(Oc3ccccc3)cc1)O2
  AC50: 7.01 µM

## O=C(CNC(=O)c1ccco1)Nc1ccc2c(c1)OCCO2
  AC50: > 20 µM (inactive)

## C=C1C(=O)OC2C=C(CO)C3OC3C3OC3(C)CC(OC(=O)/C(=C/C)COC(C)=O)C12 (centres undefined)
  AC50: 1.67 µM

## CCN1/C(=C/c2sc(-c3ccccc3C)c[n+]2C)Sc2ccccc21
  AC50: 0.574 µM

## CC12CCC3C(CCC4(O)CC(O)CCC34C=O)C1(O)CCC2C1=CC(=O)OC1 (centres undefined)
  AC50: 3.75 µM

## Cn1cnc(CCNC(=O)C[C@@H]2CC[C@@H]3[C@H](COC[C@@H](O)CN3C(=O)Nc3ccc(C(F)(F)F)cc3)O2)c1
  AC50: 9.53 µM

## O=C1C=CC(=O)c2c(O)c(N3CCN(CCOCCO)CC3)c(Br)c(O)c21
  AC50: 1.33 µM

## C[C@H](CO)N1C[C@H](C)[C@H](CN(C)S(=O)(=O)c2ccc([N+](=O)[O-])cc2)OCc2ccccc2-c2c(n(C)c3ccccc23)C1=O
  AC50: 9.88 µM

## CO[C@@H](CN(C)S(=O)(=O)c1ccc(Cl)cc1)[C@H](C)CN(Cc1ccccc1Cl)[C@@H](C)CO
  AC50: > 20 µM (inactive)

## C[C@@H]1CN([C@H](C)CO)C(=O)c2c(c3ccccc3n2C)-c2ccccc2CO[C@H]1CN(C)C(=O)c1cc(Cl)cc(Cl)c1
  AC50: > 20 µM (inactive)

## O=C1C=CC2C3C(=O)N(c4ccccc4)C(=O)C3C1N2Cc1ccccc1 (centres undefined)
  AC50: 1.52 µM

## CC1CC(C)(C)Nc2ccc(OC(=O)c3ccco3)cc21 (centres undefined)
  AC50: 2.42 µM

## CC=Cc1cc2c(c(=O)o1)C(=O)C(O)C(C)O2 (centres undefined)
  AC50: 10.4 µM

## Clc1ccc(C(Cn2ccnc2)OCc2ccsc2Cl)c(Cl)c1 (centres undefined)
  AC50: 4.05 µM

## CC1=C(C#N)c2nc(N)c(C#N)c(C)c2/C1=C\c1ccccc1
  AC50: 3.57 µM

## C[C@@H]1CN([C@@H](C)CO)C(=O)c2c(c3ccccc3n2C)-c2ccccc2CO[C@H]1CN(C)C(=O)Nc1ccccc1C(F)(F)F
  AC50: 8.9 µM

## C[C@@H]1CN([C@H](C)CO)C(=O)c2c(c3ccccc3n2C)-c2ccccc2CO[C@H]1CN(C)Cc1cccc(C(F)(F)F)c1
  AC50: > 20 µM (inactive)

## COc1ccc(/C=C\c2nc(=O)c3ccccc3o2)cc1
  AC50: 9.73 µM

## CC(C)c1ccc(NC(=O)Nc2nc(C(N)COCc3ccccc3)cs2)cc1 (centres undefined)
  AC50: 1.78 µM

## C[C@H]1CN([C@@H](C)CO)C(=O)Cc2cc(NC(=O)Cc3cn(C)c4ccccc34)ccc2O[C@H]1CN(C)Cc1ccc(C(F)(F)F)cc1
  AC50: > 20 µM (inactive)

## c1ccc2c(c1)OCC(C1=NCCN1)O2 (centres undefined)
  AC50: > 20 µM (inactive)

## CC(C)(C)c1cc(C=C(C#N)C#N)cc(C(C)(C)C)c1O
  AC50: 1.22 µM

## O=C(CCN1CCC(c2ccccc2)C1)c1ccc2c(c1)OCCO2 (centres undefined)
  AC50: 6.18 µM

## CC(C)(C)OC(=O)CC(S(=O)(=O)c1ccccc1)S(=O)(=O)c1ccccc1
  AC50: 1.07 µM

## Cc1ccc2c(=O)c3ccccc3n(CCCN)c2c1C
  AC50: 3.28 µM

## C[C@H](CO)N1C[C@H](C)[C@@H](CN(C)Cc2ccc(Cl)c(Cl)c2)OCCCC[C@H](C)Oc2ccc(NS(=O)(=O)c3cccs3)cc2C1=O
  AC50: 8.48 µM
